# US7892764B2, “System for seizure suppression” (priority 2006, dated 2011)
# Biological target: T1, ASICs (Mus musculus, UniProt Q6NXK8)
# T1 construct: Primary neuronal cultures were prepared from embryonic Swiss mice at 15 to 16 days of gestation; endogenous in cells
# T1 sequence (Q6NXK8 1-526): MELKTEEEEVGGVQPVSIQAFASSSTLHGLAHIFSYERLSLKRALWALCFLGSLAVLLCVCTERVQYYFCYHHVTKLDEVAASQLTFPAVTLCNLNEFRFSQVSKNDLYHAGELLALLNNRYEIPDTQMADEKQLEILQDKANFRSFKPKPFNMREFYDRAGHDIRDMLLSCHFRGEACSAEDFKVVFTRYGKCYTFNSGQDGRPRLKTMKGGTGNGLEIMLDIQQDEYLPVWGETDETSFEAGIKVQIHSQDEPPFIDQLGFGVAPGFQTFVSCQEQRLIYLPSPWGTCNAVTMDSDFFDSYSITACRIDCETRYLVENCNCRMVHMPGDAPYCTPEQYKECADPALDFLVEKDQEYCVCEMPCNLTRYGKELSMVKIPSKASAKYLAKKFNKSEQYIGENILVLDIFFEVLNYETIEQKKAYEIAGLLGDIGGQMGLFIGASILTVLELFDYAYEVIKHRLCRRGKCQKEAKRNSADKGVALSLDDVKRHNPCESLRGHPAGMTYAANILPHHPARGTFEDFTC
# Assay: Acid (pH 7.0/7.1)-induced membrane depolarization and neuronal firing, current-clamp recording
# Type: cell-based
# Source text: Unlike ischemia, only moderate pH changes (e.g., ˜0.3 pH unit) are reported in brain parenchyma during seizures (Chesler et al., 1988: Chesler et al., 1992), although pH in the synaptic cleft may be much lower (Chesler et al., 1992; Wemmie et al., 2006). […] One possibility is that voltage-clamp recording has relatively low sensitivity to resolve small current in whole-cell configuration. To provide more evidence that the decreases of pHo to the level seen in epilepsy can indeed activate the ASICs and cause neuronal excitation, we have also used current-clamp recording to study changes of membrane depolarization and neuronal firing by small changes of pHo. Due to the large input resistance of most CNS neurons (e.g., ˜500 MΩ), even a small membrane current (e.g., 10-20 pA, which is difficult to resolve in voltage-clamp recording in general) can induce significant membrane depolarization in current-clamp conditions. Mouse cortical neurons were used for current-clamp recordings 14 days after the culture.
# Cortical neuronal culture. Primary neuronal cultures were prepared from embryonic Swiss mice at 15 to 16 days of gestation according to our previously described techniques (Xiong et al., 2004). In brief, cerebral cortices from 10 to 12 embryos were dissected and incubated with 0.05% trypsin-EDTA for 10 min, dissociated by trituration with a fire-polished glass pipette, and plated on poly-L-ornithine-coated culture dishes at a density of 0.5×10^6 cells per dish. Neurons were cultured with Neurobasal medium supplemented with B27 (Invitrogen). The cultures were maintained at 37° C. in a humidified 5% CO2 atmosphere incubator and were used for experiments after 12-14 days.
# Patch clamp techniques. Whole-cell voltage-clamp and current-clamp recordings were performed as described in our previous studies (Xiong et al., 2004). […] Whole-cell currents were recorded using Axopatch 200B amplifiers with pCLAMP software (Axon Instruments, CA, USA). […]
Compound,"effect on acid-induced neuronal excitation (membrane depolarization, firing rate) (pH 7.0, amiloride 100 μM or synthetic PcTX1 20 nM)",effect on acid-induced depolarization and firing of action potentials (pH 7.1)
"NC(N)=NC(=O)c1nc(Cl)c(N)nc1N [amiloride, 3,5-diamino-6-chloro-N(diaminomethylidene)pyrazine-2-carboxamide]",largely and significantly reduced,–
Psalmotoxin 1 [PcTX1],–,sensitive to PcTX1 inhibition
